In ChEMBL document CHEMBL1126360, “-Amino acid analogues as mechanism-based inactivators of -aminobutyric acid aminotransferase” (Bioorg Med Chem Lett, 1992):

What was measured:
[1] = molecular target: 4-aminobutyrate aminotransferase, mitochondrial (Sus scrofa, UniProt P80147); assay: Apparent dissociation constants for inactivation of Gamma-amino-N-butyrate transaminase
[2] = molecular target: 4-aminobutyrate aminotransferase, mitochondrial (Sus scrofa) (UniProt P80147); assay: Rate constants for inactivation at infinite concentration for inactivation of Gamma-amino-N-butyrate transaminase
Sequence of 4-aminobutyrate aminotransferase, mitochondrial (Sus scrofa) (P80147 whole entry): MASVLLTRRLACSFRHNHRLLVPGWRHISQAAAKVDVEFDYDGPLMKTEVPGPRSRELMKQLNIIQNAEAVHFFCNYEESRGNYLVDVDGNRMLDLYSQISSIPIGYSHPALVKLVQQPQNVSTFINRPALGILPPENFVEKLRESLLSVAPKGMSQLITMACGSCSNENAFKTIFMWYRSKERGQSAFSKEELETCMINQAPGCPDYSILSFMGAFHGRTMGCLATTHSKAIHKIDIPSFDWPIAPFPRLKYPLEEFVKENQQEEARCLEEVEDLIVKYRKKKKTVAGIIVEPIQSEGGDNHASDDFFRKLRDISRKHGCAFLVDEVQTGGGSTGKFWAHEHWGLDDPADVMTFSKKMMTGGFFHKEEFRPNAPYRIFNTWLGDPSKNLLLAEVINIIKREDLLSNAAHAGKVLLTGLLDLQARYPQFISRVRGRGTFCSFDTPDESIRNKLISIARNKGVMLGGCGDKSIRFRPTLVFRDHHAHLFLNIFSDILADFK

Sequence of 4-aminobutyrate aminotransferase, mitochondrial (P80147 whole entry): as above

| Ki [1] | K inact [2] | SMILES |
| --- | --- | --- |
| 5.7 mM | 0.0014 min⁻¹ | C[C@](N)(COP(=O)(O)O)C(=O)O |
| 6.5 mM | 0.00093 min⁻¹ | C[C@](N)(CCl)C(=O)O |
| 12.8 mM | 8.5e-05 min⁻¹ | C=C[C@](C)(N)C(=O)O |

| SMILES | Ki [1] | K inact [2] |
| --- | --- | --- |
| C[C@](N)(CF)C(=O)O | 6.8 mM | 0.00059 min⁻¹ |
| N[C@@H](COS(=O)(=O)O)C(=O)O | 2.4 mM | 0.0055 min⁻¹ |
